Measured values: publication PMC7647111, “Antileishmanial compounds from Connarus suberosus: Metabolomics, isolation and mechanism of action” (PLoS ONE, 2020)
Values joined by “and” are separate entries in the source; they are usually repeats but may differ in a detail not shown here. Equal entries are not always repeated.

What was measured:
[1] = system: L. infantum promastigotes; assay: Antiproliferation assay: L. infantum promastigotes (72 h), MTT; type: cell-based, Leishmania infantum (MCAN/BR/2008/1112); conditions: Leishmania infantum, 72 h, 72 h exposure
Description: Leishmania amazonensis promastigotes (IFLA/BR/1967/PH8) for the 24 h exposure test were cultivated in RPMI 1640, supplemented with 20% v/v heat inactivated fetal bovine serum (FBS) and incubated at 26°C until near the end of the log growth phase. Leishmania amazonensis (IFLA/BR/1967/PH8) and L. infantum (MCAN/BR/2008/1112) promastigotes used in the 72 h exposure test were cultivated in Warren’s medium (containing brain heart infusion- BHI plus hemin and folic acid), supplemented with 10% FBS, 0.1% of the antibiotics: 100 UI/mL penicillin G and 0.1 mg/mL streptomycin. Leishmania amazonensis (IFLA/BR/1967/PH8) transfected with the red fluorescent protein (RFP) gene was cultured in M199 medium (containing 0.1 mmol/L adenine, 40 mmol/L hepes, 0.0005% hemin and 0.0002% biotin), supplemented with 10% FBS, and 0.1% of the antibiotic. Parasites were maintained at 25°C in a BOD incubator.
Extracts and isolated compounds were tested against L. amazonensis promastigotes (IFLA/BR/1967/PH8 strain - 2x10^5 cells/well) and L. infantum promastigotes (MCAN/BR/2008/1112 strain - 3x10^5 cells/well). The samples were solubilized in DMSO (<1%), serially diluted (100 μg/mL to 1.56 μg/mL) and tested in a 96-well plate to obtain a dose-response curve. Miltefosine and DMSO were used as positive and negative controls, respectively. After 72 h, 10 μL of 3-(4,5-dimethylthiazol-2-yl)-2,5-diphenyl tetrazolium bromide (5 mg/mL—MTT, Sigma-Aldrich) solution was added to each well and the plate returned to the incubator for an additional 4 h. To halt the reaction, 100 μL acidified isopropanol was added to each well. Plates were read at 570 nm in a microplate reader (Multiskan MS, LabSystems Oy, Helsinki, Finland).

[2] = system: L. infantum amastigotes; assay: L. infantum amastigotes assay (Giemsa, infection index); type: cell-based, Leishmania infantum
Description: Peritoneal macrophages (6 x 10^5 cells) were plated on round glass coverslips within 24-well plates in RPMI 1640 medium supplemented with FBS and 20 mM L-glutamine, pH 7.2, and incubated for 24 h at 37°C in 5% CO2. Stationary-phase promastigotes (6 x 10^6 cells, at a ratio of 10 parasites per macrophage) were then added to the wells, and cultures incubated for 24 h at 37°C in 5% CO2. Non-internalized parasites were removed by extensive PBS solution washing and infected macrophages subsequently treated with nontoxic concentrations of: compound 3 (6.25 μg/mL to 0.18 μg/mL) or miltefosine (10.0 μg/mL to 0.6 μg/mL, positive control) for 72 h at 37°C in 5% CO2. After compound exposure, cells were fixed with absolute ethanol and stained with Giemsa. A total of 200 macrophages were counted under a light microscope. The infection index was determined by the […] percentage of infected macrophages multiplied by the mean number of amastigotes per macrophage out of 200 macrophages.

[3] = system: L. amazonensis promastigotes; assay: Mitochondrial membrane potential (MitoTracker); type: cell-based, Leishmania amazonensis; conditions: 24 h; 2 at 33.8 μM, 3 at 11.4 μM; FCCP 5.0 μM for 10 min
Description: After 24 h of incubation at 25°C, the parasite concentration was adjusted to 5x10^6 cells/mL and stained with 500 nM MitoTracker (Invitrogen, Eugene, OR, USA) in the dark for 40 min at 37°C. After washing twice with PBS, samples were transferred in triplicate to a black 96-well plate, and fluorescence measured in a spectrofluorometer (FLx800, BioTek Instruments, Inc., Winooski, VT, USA) at 540/600 nm excitation/emission. […] Louis, MO, USA) for 10 min were used to obtain maximal mitochondrial depolarization (positive control).

[4] = system: L. amazonensis promastigotes; assay: Transmission electron microscopy (TEM); type: cell-based, Leishmania amazonensis; conditions: 11.4 μM, 24 h
Description: Leishmania amazonensis promastigotes (10^7 cells/mL) were treated with compound 3 (11.4 μM) or incubated with controls (medium alone or medium plus 0.01% DMSO) for 24 h at 26°C. The parasites were subsequently washed in PBS, fixed in 2.5% glutaraldehyde (in 0.1 M sodium cacodylate buffer) at pH 7.2 for 45 min at room temperature. After fixation, the specimens were washed three times successively with 0.1 M sodium cacodylate buffer, and postfixed in 1% osmium tetroxide, 0.8% potassium ferricyanide, and 5 mM of the CaCl2 in 0.1 M of the sodium cacodylate buffer (0.1 M, pH 7.2). Dehydration was performed in acetone, followed by the embedding resin (Spur, Sigma-Aldrich®). Ultrathin sections were contrasted with uranyl acetate and lead citrate and observed under a transmission electron microscope (JEOL 1011).

Question: For `C=C[C@@H](c1cc(CC=C(C)C)ccc1O)c1cc(CC=C(C)C)c(OC)cc1O` [Compound 3, connarin], which IC50 [1] is on record?
Answer: 5.2 µg/mL and 13.3 µM

Question: What about the “SI (Selectivity Index)” value ([2]; L. infantum amastigotes) of the same molecule?
Answer: 2.4

Question: What about the IC50 ([2]; Leishmania infantum, intracellular, 72 h) of the same molecule?
Answer: 7.7 µM

Question: What about the “reduction in mitochondrial membrane potential (ΔΨm)” value [3] of the same molecule?
Answer: 26.5%

Question: And the “ultrastructural modification (TEM)” value [4]?
Answer: showed lipid bodies and the presence of vacuoles
